Patent publication US20240285541A1, “SHELF STABLE ORGANIC NUCLEOTIDE COMPOSITIONS AND METHODS OF MANUFACTURING THE SAME” (Glanbia Nutritionals, Inc., priority 2023, published 2024)

Assay: ATP stability over 362 days, processed under acidic and hot-fill conditions
Format: physicochemical
Conditions: acidic conditions (pH 2.8; b60 also says pH 2.5), hot-fill conditions
Description: FIG. 5 is a graphical representation 500 of the unexpectedly good results achieved through the method and composition described in connection with FIG. 4. Specifically, the graphical representation 500 illustrates a comparison of ATP stability for a composition or product of the disclosure (specifically, Formula A prepared according to method 400) compared against a control ATP product processed under acidic conditions (pH 2.5) and hot-fill conditions. The ATP stability measurements were calculated over three hundred sixty-two (362 days). For the control ATP, pH 2.8 (Δ), y=116.03e^−0.012x, R^2=0.966. For the encapsulated ATP Formula A, pH 2.8 (Δ), y=100.37e^−0.003x, R^2=0.9591.
Specifically, Formula A continued to comprise about 33.43 wt % of ATP 100, 200 at the end of the 362 days, compared with the 1.44 wt % of ATP 100, 200 in the control ATP solution.
FIG. 7 is a graphical representation 700 of the unexpectedly good results achieved through the method and composition described in connection with FIG. 6. Specifically, the graphical representation 700 illustrates a comparison of ATP stability for a composition or product of the disclosure (specifically, Formula B prepared according to method 600) compared against a control ATP product processed under acidic conditions (pH 2.8) and hot-fill conditions. ATP stability measurements were calculated over three hundred sixty-two (362) days. […]

Nc1ncnc2c1ncn2[C@@H]1O[C@H](COP(=O)(O)OP(=O)([O-])OP(=O)([O-])O)[C@@H](O)[C@H]1O.[Na+].[Na+] [control ATP, adenosine triphosphate (ATP) disodium salt]
ATP 100, 200 comprised at the end of the 362 days: 1.44 wt %
